Laboratory results taken from US5506102A (priority 1993, dated 1996).

Tests used:
[1] = molecular target: T1, glucocorticoid receptor (GR) (Homo sapiens, UniProt P04150); settings: high concentrations, dexamethasone present, FIG. 8B
T1 sequence (P04150 1-777): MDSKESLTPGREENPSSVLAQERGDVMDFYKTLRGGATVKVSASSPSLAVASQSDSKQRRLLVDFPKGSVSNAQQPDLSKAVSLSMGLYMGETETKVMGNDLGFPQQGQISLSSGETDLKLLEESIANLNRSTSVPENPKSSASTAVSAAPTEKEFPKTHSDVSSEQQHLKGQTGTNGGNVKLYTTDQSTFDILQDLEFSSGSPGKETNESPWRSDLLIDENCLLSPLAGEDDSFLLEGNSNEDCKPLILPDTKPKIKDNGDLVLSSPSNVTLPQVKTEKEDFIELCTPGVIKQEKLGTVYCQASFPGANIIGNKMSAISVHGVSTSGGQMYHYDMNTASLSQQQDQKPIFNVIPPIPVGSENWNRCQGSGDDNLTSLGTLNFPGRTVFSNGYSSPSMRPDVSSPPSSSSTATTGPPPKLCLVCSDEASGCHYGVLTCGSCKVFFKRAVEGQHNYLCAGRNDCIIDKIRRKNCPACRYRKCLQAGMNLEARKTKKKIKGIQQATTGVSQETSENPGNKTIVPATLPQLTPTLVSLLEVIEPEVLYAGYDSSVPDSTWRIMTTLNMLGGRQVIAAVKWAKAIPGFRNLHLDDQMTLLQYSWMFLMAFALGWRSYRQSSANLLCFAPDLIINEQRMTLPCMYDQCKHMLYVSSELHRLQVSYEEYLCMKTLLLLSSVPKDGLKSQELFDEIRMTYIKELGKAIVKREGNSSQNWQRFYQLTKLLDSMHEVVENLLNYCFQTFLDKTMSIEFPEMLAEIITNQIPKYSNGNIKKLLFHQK
Description: Cells were seeded in 12-well, 96-well or 10 cm tissue culture plates. […] 20 μg of DNA/ml of transfection buffer were used in each transfection reaction. In this mix, the concentration of the luciferase plasmids and that of the internal control plasmid pCH110 (Pharmacia, Inc.), which contains the gene for the β-galactosidase enzyme, remained constant ([…] of each plasmid DNA), while the receptor plasmid concentration varied as indicated for each experiment. Different amounts of receptor parental plasmid, pSV2-neo (Dr. Bert O'Malley, Baylor College of Medicine, Houston, Tex.) was included to keep constant the total amount of the SV40 enhancer vectors. pGEM4 plasmid DNA (Promega Biotech, Madison, Wis.) was added to balance the total DNA concentration to 20 g/reaction. For the 96-well plate experiments, transfections were performed on a Biomek 1000 Automated Laboratory Workstation (Beckman Instruments, Fullerton, Calif.).
Cells were seeded 24 hours prior to transfection in the fiat-bottom tissue culture plates ([…]) in phenol red-free DMEM containing 10% FCS. […] Using calcium phosphate co-precipitation, DNA solution was added dropwise with vortexing into an equal volume of 2X HBS pH 6.9 (280 mM NaCl. 50 mM HEPES, 1.5 mM Na2 HPO4) and precipitates were allowed to form for 20 minutes. Cells were transfected ( […] of DNA mix/well) for 6 hours and then washed with phosphate-bufferedsaline (PBS) to remove the precipitate. Cells were incubated for an additional 24 hours in phenol red-free medium containing 10% charcoal-treated FCS, with or without hormones as indicated in the text. Cell extracts were prepared as described by Berger et al., Supra, and assayed for luciferase and β-galactosidase activities. All determinations were performed in triplicates in at least two independent experiments, and were normalized for transfection efficiency by using β-galactosidase as an internal control.

[2] = molecular target: T2, PR-B (Homo sapiens, UniProt P06401); test: PR-B regulation of TAT promoter; format: cell-based; design: expressed in transfected cells; host or cells: CV-1, HepG2 (PRE2 tk-LUC); HeLa, also HepG2 and CV-1 (TAT promoter); settings: data not shown
T2 sequence (P06401 1-933): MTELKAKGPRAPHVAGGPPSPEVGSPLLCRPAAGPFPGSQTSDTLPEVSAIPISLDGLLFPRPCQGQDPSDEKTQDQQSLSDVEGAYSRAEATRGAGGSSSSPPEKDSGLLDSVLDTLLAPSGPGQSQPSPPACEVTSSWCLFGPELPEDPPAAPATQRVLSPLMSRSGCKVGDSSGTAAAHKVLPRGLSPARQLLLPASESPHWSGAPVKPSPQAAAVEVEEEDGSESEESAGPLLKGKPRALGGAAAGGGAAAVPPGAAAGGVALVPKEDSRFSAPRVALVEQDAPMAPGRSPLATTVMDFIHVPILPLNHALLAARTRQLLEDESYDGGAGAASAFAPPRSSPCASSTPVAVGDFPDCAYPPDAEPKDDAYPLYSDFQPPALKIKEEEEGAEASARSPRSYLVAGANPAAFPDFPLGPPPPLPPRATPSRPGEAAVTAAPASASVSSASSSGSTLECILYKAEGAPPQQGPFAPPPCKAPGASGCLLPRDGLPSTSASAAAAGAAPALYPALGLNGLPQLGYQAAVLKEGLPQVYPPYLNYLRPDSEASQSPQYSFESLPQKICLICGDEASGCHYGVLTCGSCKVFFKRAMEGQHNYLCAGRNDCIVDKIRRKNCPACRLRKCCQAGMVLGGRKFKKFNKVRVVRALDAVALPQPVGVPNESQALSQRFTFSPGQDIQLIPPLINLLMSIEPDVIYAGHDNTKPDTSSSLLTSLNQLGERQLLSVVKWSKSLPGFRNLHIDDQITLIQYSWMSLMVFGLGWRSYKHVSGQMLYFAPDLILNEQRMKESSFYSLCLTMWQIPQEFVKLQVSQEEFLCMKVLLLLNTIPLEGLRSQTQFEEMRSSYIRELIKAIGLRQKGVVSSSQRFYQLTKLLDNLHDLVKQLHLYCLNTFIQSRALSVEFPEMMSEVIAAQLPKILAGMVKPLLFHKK
Description: FIGS. 4A-4B are a series of graphs showing CV-1 ([…]) or HepG2 (FIG. 4B) cells that were transiently transfected with either […] of phPR-B or phPR-A alone, or phPR-B in the presence of increasing concentrations of phPR-A, together with 5 µg/ml of the PRE2 tk-LUC reporter and 5 µg/ml of pCH110 as an internal control. HeLa cells (FIG. 4C) were transfected with either phPR-B or phPR-A together with 5 µg/ml of the pTAT2950 reporter and 5 µg/ml of pCH110 as an internal control. […] The relative luciferase activity is calculated by dividing the normalized luciferase value at a given point by that obtained in the absence of transfected receptor or ligand. The data shown represent the mean +/- average deviation from the mean of triplicate estimations;
The 2.9 Kb fragment resulting from the digestion of the pTAT-CAT plasmid, and the 6.7 Kb fragment, containing the luciferase gene and the backbone resulting from MMTV-LUC digestion products, were ligated to create the plasmid TAT2950-LUC.
Cells were seeded in 12-well, 96-well or 10 cm tissue culture plates. […] 20 μg of DNA/ml of transfection buffer were used in each transfection reaction. […]

## CC#C[C@]1(O)CC[C@H]2[C@@H]3CCC4=CC(=O)CCC4=C3[C@@H](c3ccc(C(C)=O)cc3)C[C@@]21C [ZK112993]
[1]
  direct inhibition of GR function: directly inhibited GR function

## CC(=O)[C@H]1CC[C@H]2[C@@H]3CCC4=CC(=O)CC[C@]4(C)[C@H]3CC[C@]12C [progesterone]
[2]; CV-1, PR-B
  TAT promoter response: unresponsive to either receptor subtype
[2]; HepG2, phPR-B
  TAT promoter response to progesterone: responded to progesterone
